# Data taken from PubChem BioAssay AID1189 (EPA DSSTox, 2008).
# Activity calls are given as the source filed them.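 The calls were made as follows: active = a tumor-causing dose value with its tumor site reported for any sex and species group of a rodent or other animal cancer study; inconclusive = only studies judged inadequate by the national testing program; inactive = tested in at least one study, none positive.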 Numbered stars: 1 amine (or outer) side, 2 acyl side, 3 side chain; on linkers, the order of the positions; unused ones are H or OH. Bridge positions count the residues as written; N and C are the ends. Square brackets hold non-standard residues; d marks the D form. Peptide text beside a SMILES is read from it. I, II: the chains in the order shown. Actinocin(1to9) = Cc1c2oc3c(C)ccc(C(=O)[*:2])c3nc-2c(C(=O)[*:1])c(N)c1=O; Actinocin(9to1) = Cc1c2oc3c(C)ccc(C(=O)[*:1])c3nc-2c(C(=O)[*:2])c(N)c1=O; d(aIle) = CC[C@H](C)[C@@H](N)C(=O)O; NMeV = CN[C@H](C(=O)O)C(C)C; Sar = CNCC(=O)O
# Assay: DSSTox (CPDBAS) Carcinogenic Potency Database Summary SingleCellCall Results
# Conditions: animal chronic carcinogenicity bioassays, CPDB summary call
# Summary of the method: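 Categorical carcinogenicity call compiled from published chronic rodent and other animal cancer bioassays; based on the most positive result across experiments for each sex-species, assigned on minimal evidence for or against activity.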
row,Structure (SMILES),outcome
1,O=C(O)CN(CCN(CC(=O)O)CC(=O)O)CC(=O)O,inactive
2,CC1(C)COC1=O,active
3,NC(=O)Cc1c([O-])on[n+]1Cc1ccccc1,active; inactive
4,ClC(Cl)(Cl)C(Cl)(Cl)Cl,active
5,Nc1ccc(-c2ccc(N)c(Cl)c2)cc1Cl,active
6,CC(Oc1ccc(Cl)cc1Cl)C(=O)O (configuration not stated),inactive
7,c1ccc2cc(Nc3ccc(Nc4ccc5ccccc5c4)cc3)ccc2c1,inactive; active
8,CN1C(=O)CN=C(c2ccccc2)c2cc(Cl)ccc21,inactive
9,OCCOCCOCCO,inactive
10,O=C1CN=C(c2ccccc2)c2cc(Cl)ccc2N1CC1CC1,inactive
11,COc1c2occc2cc2ccc(=O)oc12,active
12,CC(C)(C)c1cc(CO)cc(C(C)(C)C)c1O,inactive
13,O=C(Nc1nc(-c2ccc([N+](=O)[O-])o2)cs1)C(F)(F)F,active
14,C=CC=O,inactive
15,C=COC(C)=O,active
16,CCCCCCCN,inactive
17,O=C1C(O)N=C(c2ccccc2F)c2cc(Cl)ccc2N1CCO (configuration not stated),inactive
18,ClC1=C(Cl)[C@@]2(Cl)[C@@H]3[C@@H](Cl)[C@H](Cl)C[C@@H]3C1(Cl)C2(Cl)Cl,active
19,CN(N=O)c1ncnc2nc[nH]c12,active
20,O=C1CCC(=O)O1,inactive
21,Cc1ccccc1[N+](=O)[O-],active

row,Structure (SMILES),outcome
1,CNC(=O)Oc1cccc2ccccc12,active
2,NNCCc1ccccc1,active
3,c1ccc(OCC2CO2)cc1 (configuration not stated),active
4,C[C@](N)(Cc1ccc(O)c(O)c1)C(=O)O,inactive
5,NNC=O,active
6,c1ccc2[nH]ccc2c1,inactive
7,"Cc1c2oc3c(C)ccc(C(=O)N[C@@H]4C(=O)N[C@H](C(C)C)C(=O)N5CCC[C@H]5C(=O)N(C)CC(=O)N(C)[C@@H](C(C)C)C(=O)O[C@@H]4C)c3nc-2c(C(=O)N[C@@H]2C(=O)N[C@H](C(C)C)C(=O)N3CCC[C@H]3C(=O)N(C)CC(=O)N(C)[C@@H](C(C)C)C(=O)O[C@@H]2C)c(N)c1=O (I: T[dV]P[Sar][NMeV] / II: T[dV]P[Sar][NMeV]; ester I:1-I:C, II:1-II:C; linker I:N-II:N via Actinocin(9to1))",active; inactive
8,O=C/C=C/O,active
9,C/C=C1/C[C@@H](C)[C@](O)(CO)C(=O)OCC2=CC[N+]3([O-])CC[C@@H](OC1=O)[C@@H]23 (some centres not stated),active
10,Cc1cc(C)c(S(=O)(=O)O)cc1N=Nc1cc(S(=O)(=O)O)c2ccccc2c1O,active
11,CC(=O)Nc1nc(-c2ccc([N+](=O)[O-])o2)cs1,active
12,CN1C(C(=O)Nc2ccccn2)=C(O)c2sc(Cl)cc2S1(=O)=O,inactive
13,CCCC(Cl)CCC(Cl)CCC(Cl)CCC(Cl)CCC(Cl)CCC(Cl)CCC(C)Cl (configuration not stated),active
14,"CC[C@H](C)[C@H]1NC(=O)[C@@H](NC(=O)c2c3nc4c(C(=O)N[C@@H]5C(=O)N[C@H](C(C)C)C(=O)N6CCC[C@H]6C(=O)N(C)CC(=O)N(C)[C@@H](C(C)C)C(=O)O[C@@H]5C)ccc(C)c4oc-3c(C)c(=O)c2N)[C@@H](C)OC(=O)[C@H](C(C)C)N(C)C(=O)CN(C)C(=O)[C@@H]2CCCN2C1=O (I: T[d(aIle)]P[Sar][NMeV] / II: T[dV]P[Sar][NMeV]; ester I:1-I:C, II:1-II:C; linker I:N-II:N via Actinocin(1to9))",inactive
15,C=CCN=C=S,active; inactive
16,C=CCl,active; inactive
17,N=c1ccn2c(n1)O[C@H]1[C@H](O)[C@@H](CO)O[C@H]12,inactive
18,O=C(O)c1cc(O)c(O)c(O)c1,inactive
19,Nc1ccc(-c2ccc(N)c(O)c2)cc1O,active
20,C=CCOc1ccc(CC(=O)O)cc1Cl,inactive
21,Clc1ccc2c(c1)Oc1ccc(Cl)cc1O2,inactive

row,Structure (SMILES),outcome
1,Clc1cc(Cl)cc(-c2cc(Cl)cc(Cl)c2)c1,inactive
2,Oc1c(Cl)cc(Cl)cc1Sc1cc(Cl)cc(Cl)c1O,inactive
3,NCC1(CC(=O)O)CCCCC1,active
4,C[C@]12CC[C@H](O)CC1=CC[C@@H]1[C@@H]2CC[C@]2(C)C(=O)CC[C@@H]12,active
5,CN(C)CCN(C)N=O,active; inactive
6,N[C@@H](Cc1cnc[nH]1)C(=O)O,inactive
7,CCCCCCCCCCCC[N+](C)(C)[O-],inactive
8,CCOC(=O)/C=C\C(=O)OCC,inactive; active
9,O=[N+]([O-])O,inactive; active
10,CN(N=O)C(=O)c1c(N(C)N=O)ncn1C,active
11,NC(=O)c1cnccn1,inactive
12,CNc1ncnc2nc[nH]c12,inactive
13,Nc1nc(N)nc(-c2cc(Cl)ccc2Cl)n1,inactive
14,C#C[C@]1(O)CC[C@H]2[C@@H]3CCc4cc(OC)ccc4[C@H]3CC[C@@]21C,inactive
15,O=C([O-])C(=O)O.O=C([O-])C(=O)O.[K+].[K+].[O]=[Ti],inactive; active
16,COc1cc(-c2ccc(N=C=O)c(OC)c2)ccc1N=C=O,active
17,NC(=S)NNC(N)=S,inactive
18,CC1(C)O[C@@H]2C[C@H]3[C@@H]4CCC5=CC(=O)C=C[C@]5(C)[C@@]4(F)[C@@H](O)C[C@]3(C)[C@]2(C(=O)CO)O1,active
19,Cc1ccc2c(c1[N+](=O)[O-])C(=O)c1ccccc1C2=O,active
20,O=C1C2CC=CCC2C(=O)N1SC(Cl)(Cl)Cl (configuration not stated),active
21,OCN(CO)c1nc(N(CO)CO)nc(N(CO)CO)n1,active

row,Structure (SMILES),outcome
1,C=C(C)C,active
2,Cn1cc(C(=O)[C@@H]2CCc3nc[nH]c3C2)c2ccccc21,inactive; active
3,C[C@]12CC[C@@H]3c4ccc(O)cc4CC[C@H]3[C@@H]1CC[C@@H]2O,inactive
4,CCc1cccc2c3c([nH]c12)C(CC)(CC(=O)O)OCC3 (configuration not stated),inactive
5,O=Cc1ccccc1,active
6,Oc1cc2c(cc1O)[C@H]1c3ccc(O)c(O)c3OC[C@@]1(O)C2,active
7,COc1cc2c(c3c1c(=O)c1ccccc1n3C)C=CC(C)(C)O2,active; inactive
8,Cc1c(COC(=O)C2C(/C=C(\Cl)C(F)(F)F)C2(C)C)cccc1-c1ccccc1 (configuration not stated),inactive; active
9,CCN(CC)c1cc2oc3cc(=[N+](CC)CC)c(C)cc-3c(-c3ccc(S(=O)(=O)O)cc3S(=O)(=O)[O-])c2cc1C,inactive
10,CC1CN(N=O)CC(C)N1C(=O)c1ccccc1 (configuration not stated),active
11,C[C@]12CC[C@H]3C(=CCc4cc(OS(=O)(=O)O)ccc43)[C@@H]1CCC2=O,inactive; active
12,CC(O)c1ccccc1 (configuration not stated),active; inactive
13,COc1ccc(C(=O)/C(Br)=C\C(=O)O)cc1,active
14,N[C@@H](Cc1ccc(N(CCCl)CCCl)cc1)C(=O)O,active
15,CC(=O)NCc1nc(-c2ccc([N+](=O)[O-])o2)no1,active
16,NC(=O)N(CCCO)N=O,active; inactive
17,COP(=O)(OC)OC,active
18,C/C=N/N(C)C=O,active; inactive
19,CC(C)(C)NC[C@H](O)COc1cccc2c1CCCC2=O,inactive
